Structures are written as SMILES.

Chain of Short transient receptor potential channel 1 & 3/Stromal interaction molecule 1/Calcium release-activated calcium channel protein 1 (Homo sapiens) (P48995 whole entry partner): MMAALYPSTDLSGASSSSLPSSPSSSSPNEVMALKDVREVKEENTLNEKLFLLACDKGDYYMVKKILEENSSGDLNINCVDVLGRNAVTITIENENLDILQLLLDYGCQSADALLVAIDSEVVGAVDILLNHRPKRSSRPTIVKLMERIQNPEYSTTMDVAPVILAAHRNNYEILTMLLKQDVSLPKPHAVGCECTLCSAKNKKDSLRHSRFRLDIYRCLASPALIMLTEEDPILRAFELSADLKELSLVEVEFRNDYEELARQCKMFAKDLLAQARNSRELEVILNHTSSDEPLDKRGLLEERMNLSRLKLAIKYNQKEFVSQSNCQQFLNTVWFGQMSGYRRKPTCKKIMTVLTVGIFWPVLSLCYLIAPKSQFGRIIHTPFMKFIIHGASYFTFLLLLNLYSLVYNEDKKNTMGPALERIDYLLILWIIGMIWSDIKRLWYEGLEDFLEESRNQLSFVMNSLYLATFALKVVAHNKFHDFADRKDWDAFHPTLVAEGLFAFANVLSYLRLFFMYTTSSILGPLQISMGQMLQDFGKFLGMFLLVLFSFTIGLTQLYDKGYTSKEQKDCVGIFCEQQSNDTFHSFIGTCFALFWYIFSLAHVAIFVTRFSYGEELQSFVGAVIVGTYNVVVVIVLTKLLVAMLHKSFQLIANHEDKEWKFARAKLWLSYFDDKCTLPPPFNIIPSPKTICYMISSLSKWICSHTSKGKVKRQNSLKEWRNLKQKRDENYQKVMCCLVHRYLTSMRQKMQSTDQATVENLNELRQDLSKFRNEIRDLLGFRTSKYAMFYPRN
Chain of Short transient receptor potential channel 1 & 3/Stromal interaction molecule 1/Calcium release-activated calcium channel protein 1 (Homo sapiens) (Q13507 whole entry partner): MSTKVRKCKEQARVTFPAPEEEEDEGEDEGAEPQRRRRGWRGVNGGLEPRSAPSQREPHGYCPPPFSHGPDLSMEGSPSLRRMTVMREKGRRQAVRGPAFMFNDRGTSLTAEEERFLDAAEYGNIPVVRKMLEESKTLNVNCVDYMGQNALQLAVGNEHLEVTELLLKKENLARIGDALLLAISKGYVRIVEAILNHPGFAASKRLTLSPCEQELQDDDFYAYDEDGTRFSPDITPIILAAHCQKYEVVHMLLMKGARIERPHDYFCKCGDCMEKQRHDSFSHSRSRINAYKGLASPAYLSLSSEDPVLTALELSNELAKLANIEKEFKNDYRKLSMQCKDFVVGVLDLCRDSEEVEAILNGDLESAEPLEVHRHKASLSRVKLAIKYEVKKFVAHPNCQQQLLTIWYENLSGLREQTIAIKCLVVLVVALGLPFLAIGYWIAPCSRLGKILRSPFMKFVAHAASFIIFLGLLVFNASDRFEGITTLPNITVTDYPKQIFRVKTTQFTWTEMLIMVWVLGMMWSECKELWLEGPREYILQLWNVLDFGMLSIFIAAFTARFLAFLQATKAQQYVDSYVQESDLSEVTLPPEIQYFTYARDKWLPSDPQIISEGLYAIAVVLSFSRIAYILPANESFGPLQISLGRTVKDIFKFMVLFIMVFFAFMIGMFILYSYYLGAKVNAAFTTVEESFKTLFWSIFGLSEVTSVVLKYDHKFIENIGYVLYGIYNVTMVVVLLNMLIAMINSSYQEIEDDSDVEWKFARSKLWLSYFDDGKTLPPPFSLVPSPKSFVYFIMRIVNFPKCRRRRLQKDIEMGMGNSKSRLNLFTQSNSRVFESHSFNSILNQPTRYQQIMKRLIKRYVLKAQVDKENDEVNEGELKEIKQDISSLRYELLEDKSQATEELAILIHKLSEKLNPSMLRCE
Chain of Short transient receptor potential channel 1 & 3/Stromal interaction molecule 1/Calcium release-activated calcium channel protein 1 (Homo sapiens) (Q13586 23-685 partner limits assumed): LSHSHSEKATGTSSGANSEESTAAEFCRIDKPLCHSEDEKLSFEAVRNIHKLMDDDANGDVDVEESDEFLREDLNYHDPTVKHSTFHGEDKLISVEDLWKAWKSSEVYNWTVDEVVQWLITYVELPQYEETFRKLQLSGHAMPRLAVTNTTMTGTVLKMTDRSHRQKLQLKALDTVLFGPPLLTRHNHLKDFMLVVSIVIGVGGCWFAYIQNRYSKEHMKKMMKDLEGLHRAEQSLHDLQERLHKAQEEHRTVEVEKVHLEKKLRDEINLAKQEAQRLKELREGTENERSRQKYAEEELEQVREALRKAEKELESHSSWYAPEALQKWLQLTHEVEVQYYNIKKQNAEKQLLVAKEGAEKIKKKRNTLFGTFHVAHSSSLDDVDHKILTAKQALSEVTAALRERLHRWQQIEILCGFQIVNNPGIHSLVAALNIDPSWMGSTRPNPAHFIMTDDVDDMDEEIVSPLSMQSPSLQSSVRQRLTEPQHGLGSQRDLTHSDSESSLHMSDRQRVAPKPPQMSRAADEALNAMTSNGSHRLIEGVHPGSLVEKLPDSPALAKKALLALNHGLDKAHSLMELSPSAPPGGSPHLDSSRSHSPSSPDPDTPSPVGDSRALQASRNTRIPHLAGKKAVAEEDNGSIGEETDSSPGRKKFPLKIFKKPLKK
Chain of Short transient receptor potential channel 1 & 3/Stromal interaction molecule 1/Calcium release-activated calcium channel protein 1 (Homo sapiens) (Q96D31 whole entry): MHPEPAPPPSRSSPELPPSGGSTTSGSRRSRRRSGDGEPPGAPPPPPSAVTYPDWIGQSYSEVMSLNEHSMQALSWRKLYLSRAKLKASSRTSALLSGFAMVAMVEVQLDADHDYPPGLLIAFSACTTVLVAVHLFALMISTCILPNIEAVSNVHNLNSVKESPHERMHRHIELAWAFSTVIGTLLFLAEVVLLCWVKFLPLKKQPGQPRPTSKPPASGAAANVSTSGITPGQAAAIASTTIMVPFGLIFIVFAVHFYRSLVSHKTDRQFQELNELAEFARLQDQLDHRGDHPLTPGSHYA

One test has as its target Short transient receptor potential channel 1 & 3/Stromal interaction molecule 1/Calcium release-activated calcium channel protein 1 (Homo sapiens) (UniProt Q96D31+Q13507+Q13586+P48995). Briefly: Modulation of TRPC1/TRPC3/STIM1/Orai1 in HEK cells assessed as induction of store-operated calcium entry by measuring residual activity at 10 uM preincubated for 30 mins followed by tBhQ-mediated Ca2+ depletion and Ca2+ re-addition to extracellular solution measured for 600 secs by Fluo-4 AM-based fluorometric assay relative to control. The test is classed as cell-based.
Regarding `O=C(O)c1cccc(-c2cn(-c3ccc(-n4ncc(CO)c4C(F)(F)F)cc3)nn2)c1`, the Activity was more than 90%.

As for `CC(C)CCOC(=O)c1cnn(-c2ccc(-n3cc(-c4cccc(C(=O)O)c4)nn3)cc2)c1C(F)(F)F`, the Activity was more than 90%.

Take `O=C(O)c1cccc(-c2cn(-c3ccc(-n4ncc(C(=O)OCc5ccncc5)c4C(F)(F)F)cc3)nn2)c1`: the Activity was more than 90%.

For the molecule `O=C(O)c1cccc(-c2cn(-c3ccc(-n4ncc(C(=O)OCCN5CCOCC5)c4C(F)(F)F)cc3)nn2)c1`, the Activity was more than 90%.

`CCOC(=O)c1cnn(-c2ccc(-n3cc(-c4cccc(C(N)=O)c4)nn3)cc2)c1C(F)(F)F`: the Activity stood at 72.1%.

`CC(C)=CCC/C(C)=C/COC(=O)c1cnn(-c2ccc(-n3cc(-c4cccc(C(=O)O)c4)nn3)cc2)c1C(F)(F)F`: the Activity is more than 90%.

Consider `CCOC(=O)c1cnn(-c2ccc(-n3nncc3-c3cccc(C(=O)O)c3)cc2)c1C(F)(F)F`, for which the Activity was more than 90%.

The target in the next test is Stromal interaction molecule 1 & 2/Calcium release-activated calcium channel protein 1 (Mus musculus) (UniProt Q8BWG9+P70302+P83093). The test can be described thus: Modulation of STIM1/STIM2/Orai1 in mouse BV2 cells assessed as induction of store-operated calcium entry by measuring residual activity at 10 uM preincubated for 30 mins followed by tBhQ-mediated Ca2+ depletion and Ca2+ re-addition to extracellular solution measured for 600 secs by Fluo-4 AM-based fluorometric assay relative to control. The test is classed as cell-based.
As for `CCOC(=O)c1cnn(-c2ccc(-n3cc(-c4ccc(Oc5ccccc5)cc4)nn3)cc2)c1C(F)(F)F`, the Activity is 83.8%.

Turning to `CCOC(=O)c1cnn(-c2ccc(-c3cn(-c4ccc(N)cc4)nn3)cc2)c1C(F)(F)F`, the Activity turned out to be 93.2%.

Take `COc1cc(OC)cc(-n2cc(-c3ccc(-n4nc(C(F)(F)F)cc4C(F)(F)F)cc3)nn2)c1`: the Activity came out at 93.7%.

On to `CCOC(=O)c1cnn(-c2ccc(-n3cc(-c4cccc(OC)c4)nn3)cc2)c1C(F)(F)F`, for which the Activity came to 105%.

Regarding `CC(=O)Nc1ccc(-c2cn(-c3ccc(-n4nc(C(F)(F)F)cc4C(F)(F)F)cc3)nn2)cc1`, the Activity came to 98.5%.

`COc1cccc(-c2cn(-c3ccc(-n4nc(C(F)(F)F)cc4C(F)(F)F)cc3)nn2)c1`: the Activity turned out to be 105%.

Turning to `CCOC(=O)c1cnn(-c2ccc(-c3cn(-c4cccc(NC(C)=O)c4)nn3)cc2)c1C(F)(F)F`, the Activity came out at 117%.

Take `COc1cc(OC)cc(-c2cn(-c3ccc(-n4nc(C(F)(F)F)cc4C(F)(F)F)cc3)nn2)c1`: the Activity was 75.2%.

Consider `CCOC(=O)c1cnn(-c2ccc(-c3cn(-c4cccc(O)c4)nn3)cc2)c1C(F)(F)F`, for which the Activity is 106%.

For `FC(F)(F)c1cc(C(F)(F)F)n(-c2ccc(-n3cc(-c4cccnc4)nn3)cc2)n1`, the Activity worked out at 87.8%.

For `Oc1cccc(-n2cc(-c3ccc(-n4nc(C(F)(F)F)cc4C(F)(F)F)cc3)nn2)c1`, the Activity is 105%.

With `CCOC(=O)c1cnn(-c2ccc(-c3cn(-c4ccccn4)nn3)cc2)c1C(F)(F)F`, the Activity was 77%.

For the molecule `COc1cc(-c2cn(-c3ccc(-n4nc(C(F)(F)F)cc4C(F)(F)F)cc3)nn2)ccc1O`, the Activity stood at 80.5%.

As to `O=C(O)CCCn1cc(-c2ccc(-n3nc(C(F)(F)F)cc3C(F)(F)F)cc2)nn1`, the Activity is 81.7%.

For the molecule `CCOC(=O)c1cnn(-c2ccc(-c3cn(-c4ccc(Oc5ccccc5)cc4)nn3)cc2)c1C(F)(F)F`, the Activity is 101%.

`CCOC(=O)c1cnn(-c2ccc(-n3cc(-c4ccc(N)cc4)nn3)cc2)c1C(F)(F)F`: the Activity worked out at 91.7%.

Turning to `CCOC(=O)c1cnn(-c2ccc(-n3cc(-c4ccccn4)nn3)cc2)c1C(F)(F)F`, the Activity amounted to 81%.

As to `Nc1cccc(-c2cn(-c3ccc(-n4nc(C(F)(F)F)cc4C(F)(F)F)cc3)nn2)c1`, the Activity was determined as 103%.

`FC(F)(F)c1cc(C(F)(F)F)n(-c2ccc(-n3cc(-c4ccncc4)nn3)cc2)n1`: the Activity amounted to 94.7%.

For `FC(F)(F)c1cc(C(F)(F)F)n(-c2ccc(-n3cc(-c4ccccc4)nn3)cc2)n1`, the Activity was 99.2%.

Take `CC(=O)Nc1cccc(-c2cn(-c3ccc(-n4nc(C(F)(F)F)cc4C(F)(F)F)cc3)nn2)c1`: the Activity was 98.1%.

On to `CCOC(=O)c1cnn(-c2ccc(-n3cc(-c4ccccc4NC(C)=O)nn3)cc2)c1C(F)(F)F`, for which the Activity turned out to be 72%.

On to `CCOC(=O)c1cnn(-c2ccc(-n3cc(-c4ccncc4F)nn3)cc2)c1C(F)(F)F`, for which the Activity is 107%.

On to `COc1ccc(-n2cc(-c3ccc(-n4nc(C(F)(F)F)cc4C(F)(F)F)cc3)nn2)cc1OC`, for which the Activity is 94.3%.

Take `Nc1ccc(-n2cc(-c3ccc(-n4nc(C(F)(F)F)cc4C(F)(F)F)cc3)nn2)cc1`: the Activity was 90.2%.

Consider `CCOC(=O)c1cnn(-c2ccc(-n3cc(-c4ccc(NC(C)=O)cc4)nn3)cc2)c1C(F)(F)F`, for which the Activity came to 106%.

For `FC(F)(F)c1cc(C(F)(F)F)n(-c2ccc(-n3cc(-c4ccc(Oc5ccccc5)cc4)nn3)cc2)n1`, the Activity worked out at 73.5%.

Consider `CC(=O)Nc1cccc(-n2cc(-c3ccc(-n4nc(C(F)(F)F)cc4C(F)(F)F)cc3)nn2)c1`, for which the Activity was 101%.

Consider `CCOC(=O)c1cnn(-c2ccc(-n3cc(-c4ccncc4)nn3)cc2)c1C(F)(F)F`, for which the Activity was 68.1%.

As for `CCOC(=O)c1cnn(-c2ccc(-c3cn(-c4ccccc4)nn3)cc2)c1C(F)(F)F`, the Activity was 97.5%.

As for `CC(=O)Nc1ccc(-n2cc(-c3ccc(-n4nc(C(F)(F)F)cc4C(F)(F)F)cc3)nn2)cc1`, the Activity stood at 98.8%.

As to `CCOC(=O)c1cnn(-c2ccc(-c3cn(-c4cc(OC)cc(OC)c4)nn3)cc2)c1C(F)(F)F`, the Activity came out at 113%.

Regarding `COc1cccc(-n2cc(-c3ccc(-n4nc(C(F)(F)F)cc4C(F)(F)F)cc3)nn2)c1`, the Activity is 113%.

For `CCOC(=O)c1cnn(-c2ccc(-n3cc(-c4ccc(OC)c(OC)c4)nn3)cc2)c1C(F)(F)F`, the Activity was found to be 82.8%.

For the molecule `CCOC(=O)c1cnn(-c2ccc(-c3cn(-c4ccc(OC)c(OC)c4)nn3)cc2)c1C(F)(F)F`, the Activity is 113%.

In the case of `FC(F)(F)c1cc(C(F)(F)F)n(-c2ccc(-c3cn(-c4ccncc4)nn3)cc2)n1`, the Activity was 84%.

Regarding `CCOC(=O)c1cnn(-c2ccc(-n3cc(-c4ccc(OC)cc4)nn3)cc2)c1C(F)(F)F`, the Activity worked out at 95.6%.

Turning to `FC(F)(F)c1cc(C(F)(F)F)n(-c2ccc(-n3cc(-c4ccccn4)nn3)cc2)n1`, the Activity worked out at 114%.

As to `O=C(O)c1cccc(-n2cc(-c3ccc(-n4nc(C(F)(F)F)cc4C(F)(F)F)cc3)nn2)c1`, the Activity worked out at 80.2%.

As for `CCOC(=O)c1cnn(-c2ccc(-n3cc(-c4cc(OC)cc(OC)c4)nn3)cc2)c1C(F)(F)F`, the Activity was 99.4%.

For the molecule `FC(F)(F)c1cc(C(F)(F)F)n(-c2ccc(-c3cn(-c4ccccc4)nn3)cc2)n1`, the Activity turned out to be 99.7%.

As for `CCOC(=O)c1cnn(-c2ccc(-c3cn(-c4cccnc4)nn3)cc2)c1C(F)(F)F`, the Activity came to 62.6%.

`FC(F)(F)c1cc(C(F)(F)F)n(-c2ccc(-n3cc(-c4ccc(Cl)cc4)nn3)cc2)n1`: the Activity worked out at 106%.

Regarding `Nc1cccc(-n2cc(-c3ccc(-n4nc(C(F)(F)F)cc4C(F)(F)F)cc3)nn2)c1`, the Activity is 85.6%.

Turning to `CCOC(=O)c1cnn(-c2ccc(-c3cn(-c4ccc(NC(C)=O)cc4)nn3)cc2)c1C(F)(F)F`, the Activity was 108%.

`CCOC(=O)c1cnn(-c2ccc(-n3cc(CCCC(=O)O)nn3)cc2)c1C(F)(F)F`: the Activity came out at 72.2%.

With `O=C(O)CCCc1cn(-c2ccc(-n3nc(C(F)(F)F)cc3C(F)(F)F)cc2)nn1`, the Activity amounted to 80.1%.

`Fc1cnccc1-c1cn(-c2ccc(-n3nc(C(F)(F)F)cc3C(F)(F)F)cc2)nn1`: the Activity was 90.2%.

For the molecule `Oc1cccc(-c2cn(-c3ccc(-n4nc(C(F)(F)F)cc4C(F)(F)F)cc3)nn2)c1`, the Activity was 95.9%.

Take `COc1ccc(-n2cc(-c3ccc(-n4nc(C(F)(F)F)cc4C(F)(F)F)cc3)nn2)cc1`: the Activity was found to be 78.7%.

In the case of `FC(F)(F)c1cc(C(F)(F)F)n(-c2ccc(-c3cn(-c4ccccn4)nn3)cc2)n1`, the Activity is 88.8%.

As for `CCOC(=O)c1cnn(-c2ccc(-c3cn(-c4ccncc4)nn3)cc2)c1C(F)(F)F`, the Activity came to 79.8%.

Take `COc1ccc(-c2cn(-c3ccc(-n4nc(C(F)(F)F)cc4C(F)(F)F)cc3)nn2)cc1`: the Activity is 99.6%.

Take `CCOC(=O)c1cnn(-c2ccc(-n3cc(-c4cccnc4)nn3)cc2)c1C(F)(F)F`: the Activity amounted to 91.6%.

`FC(F)(F)c1cc(C(F)(F)F)n(-c2ccc(-c3cn(-c4ccc(Oc5ccccc5)cc4)nn3)cc2)n1`: the Activity stood at 90.2%.

For `CCOC(=O)c1cnn(-c2ccc(-c3cn(-c4cccc(OC)c4)nn3)cc2)c1C(F)(F)F`, the Activity came to 117%.

As to `Nc1ccc(-c2cn(-c3ccc(-n4nc(C(F)(F)F)cc4C(F)(F)F)cc3)nn2)cc1`, the Activity was 98.1%.

`CCOC(=O)c1cnn(-c2ccc(-c3cn(-c4ccc(OC)cc4)nn3)cc2)c1C(F)(F)F`: the Activity came to 83.1%.

Turning to `COc1ccc(-c2cn(-c3ccc(-n4nc(C(F)(F)F)cc4C(F)(F)F)cc3)nn2)cc1OC`, the Activity was determined as 109%.

With `CCOC(=O)c1cnn(-c2ccc(-n3cc(-c4ccc(Cl)cc4)nn3)cc2)c1C(F)(F)F`, the Activity worked out at 88.6%.

In the case of `FC(F)(F)c1cc(C(F)(F)F)n(-c2ccc(-c3cn(-c4ccc(Cl)cc4)nn3)cc2)n1`, the Activity is 116%.

As for `CC(=O)Nc1ccccc1-c1cn(-c2ccc(-n3nc(C(F)(F)F)cc3C(F)(F)F)cc2)nn1`, the Activity was found to be 93.2%.

With `CCOC(=O)c1cnn(-c2ccc(-n3cc(-c4cccc(NC(C)=O)c4)nn3)cc2)c1C(F)(F)F`, the Activity came to 75.3%.

Turning to `Fc1cnccc1-n1cc(-c2ccc(-n3nc(C(F)(F)F)cc3C(F)(F)F)cc2)nn1`, the Activity was found to be 106%.

Consider `CCOC(=O)c1cnn(-c2ccc(-n3cc(-c4cccc(O)c4)nn3)cc2)c1C(F)(F)F`, for which the Activity turned out to be 96.5%.

As for `CCOC(=O)c1cnn(-c2ccc(-n3cc(-c4ccccc4)nn3)cc2)c1C(F)(F)F`, the Activity is 86.1%.

`FC(F)(F)c1cc(C(F)(F)F)n(-c2ccc(-c3cn(-c4cccnc4)nn3)cc2)n1`: the Activity came to 77%.

Values taken from ChEMBL document CHEMBL4152384, “Pyrtriazoles, a Novel Class of Store-Operated Calcium Entry Modulators: Discovery, Biological Profiling, and in Vivo Proof-of-Concept Efficacy in Acute Pancreatitis” (J Med Chem, 2018).
